According to paper PMC5415086 (Nature, 2010):

How the values were obtained:
[1] = system: bone marrow-derived macrophages (BMDMs); type: cell-based, C57BL/6 mice; details: BMDM treatment with the HDAC inhibitor
[2] = system: other bromodomain-containing proteins from each arm of the phylogeny tree; test: interaction with other bromodomain-containing proteins; type: binding; details: selectivity
[3] = system: panel of 38 unrelated proteins; test: activity towards a panel of unrelated proteins; details: selectivity
[4] = system: bone marrow-derived macrophages (BMDMs); test: LPS-inducible gene expression in macrophages; type: cell-based, C57BL/6 mice; details: for number of LPS-inducible genes down-regulated: I-BET 1 μM, >2 fold
[5] = system: bone marrow-derived macrophages (BMDMs); test: gene transcription in BMDMs without LPS stimulation; type: cell-based, C57BL/6 mice; details: absence of LPS stimulation
[6] = system: bone marrow-derived macrophages (BMDMs); test: LPS-induced signalling; type: cell-based, C57BL/6 mice; details: I-BET treated cells
[7] = system: bone marrow-derived macrophages (BMDMs); test: viability of BMDMs; type: cell-based, C57BL/6 mice
[8] = biological target: pCAF (Homo sapiens, UniProt Q92831); test: histone acetyltransferase; type: biochemical
[9] = biological target: p300 (Homo sapiens, UniProt Q09472); test: histone acetyltransferase; type: biochemical
Sequence of p300 (Q09472 whole entry, species assumed): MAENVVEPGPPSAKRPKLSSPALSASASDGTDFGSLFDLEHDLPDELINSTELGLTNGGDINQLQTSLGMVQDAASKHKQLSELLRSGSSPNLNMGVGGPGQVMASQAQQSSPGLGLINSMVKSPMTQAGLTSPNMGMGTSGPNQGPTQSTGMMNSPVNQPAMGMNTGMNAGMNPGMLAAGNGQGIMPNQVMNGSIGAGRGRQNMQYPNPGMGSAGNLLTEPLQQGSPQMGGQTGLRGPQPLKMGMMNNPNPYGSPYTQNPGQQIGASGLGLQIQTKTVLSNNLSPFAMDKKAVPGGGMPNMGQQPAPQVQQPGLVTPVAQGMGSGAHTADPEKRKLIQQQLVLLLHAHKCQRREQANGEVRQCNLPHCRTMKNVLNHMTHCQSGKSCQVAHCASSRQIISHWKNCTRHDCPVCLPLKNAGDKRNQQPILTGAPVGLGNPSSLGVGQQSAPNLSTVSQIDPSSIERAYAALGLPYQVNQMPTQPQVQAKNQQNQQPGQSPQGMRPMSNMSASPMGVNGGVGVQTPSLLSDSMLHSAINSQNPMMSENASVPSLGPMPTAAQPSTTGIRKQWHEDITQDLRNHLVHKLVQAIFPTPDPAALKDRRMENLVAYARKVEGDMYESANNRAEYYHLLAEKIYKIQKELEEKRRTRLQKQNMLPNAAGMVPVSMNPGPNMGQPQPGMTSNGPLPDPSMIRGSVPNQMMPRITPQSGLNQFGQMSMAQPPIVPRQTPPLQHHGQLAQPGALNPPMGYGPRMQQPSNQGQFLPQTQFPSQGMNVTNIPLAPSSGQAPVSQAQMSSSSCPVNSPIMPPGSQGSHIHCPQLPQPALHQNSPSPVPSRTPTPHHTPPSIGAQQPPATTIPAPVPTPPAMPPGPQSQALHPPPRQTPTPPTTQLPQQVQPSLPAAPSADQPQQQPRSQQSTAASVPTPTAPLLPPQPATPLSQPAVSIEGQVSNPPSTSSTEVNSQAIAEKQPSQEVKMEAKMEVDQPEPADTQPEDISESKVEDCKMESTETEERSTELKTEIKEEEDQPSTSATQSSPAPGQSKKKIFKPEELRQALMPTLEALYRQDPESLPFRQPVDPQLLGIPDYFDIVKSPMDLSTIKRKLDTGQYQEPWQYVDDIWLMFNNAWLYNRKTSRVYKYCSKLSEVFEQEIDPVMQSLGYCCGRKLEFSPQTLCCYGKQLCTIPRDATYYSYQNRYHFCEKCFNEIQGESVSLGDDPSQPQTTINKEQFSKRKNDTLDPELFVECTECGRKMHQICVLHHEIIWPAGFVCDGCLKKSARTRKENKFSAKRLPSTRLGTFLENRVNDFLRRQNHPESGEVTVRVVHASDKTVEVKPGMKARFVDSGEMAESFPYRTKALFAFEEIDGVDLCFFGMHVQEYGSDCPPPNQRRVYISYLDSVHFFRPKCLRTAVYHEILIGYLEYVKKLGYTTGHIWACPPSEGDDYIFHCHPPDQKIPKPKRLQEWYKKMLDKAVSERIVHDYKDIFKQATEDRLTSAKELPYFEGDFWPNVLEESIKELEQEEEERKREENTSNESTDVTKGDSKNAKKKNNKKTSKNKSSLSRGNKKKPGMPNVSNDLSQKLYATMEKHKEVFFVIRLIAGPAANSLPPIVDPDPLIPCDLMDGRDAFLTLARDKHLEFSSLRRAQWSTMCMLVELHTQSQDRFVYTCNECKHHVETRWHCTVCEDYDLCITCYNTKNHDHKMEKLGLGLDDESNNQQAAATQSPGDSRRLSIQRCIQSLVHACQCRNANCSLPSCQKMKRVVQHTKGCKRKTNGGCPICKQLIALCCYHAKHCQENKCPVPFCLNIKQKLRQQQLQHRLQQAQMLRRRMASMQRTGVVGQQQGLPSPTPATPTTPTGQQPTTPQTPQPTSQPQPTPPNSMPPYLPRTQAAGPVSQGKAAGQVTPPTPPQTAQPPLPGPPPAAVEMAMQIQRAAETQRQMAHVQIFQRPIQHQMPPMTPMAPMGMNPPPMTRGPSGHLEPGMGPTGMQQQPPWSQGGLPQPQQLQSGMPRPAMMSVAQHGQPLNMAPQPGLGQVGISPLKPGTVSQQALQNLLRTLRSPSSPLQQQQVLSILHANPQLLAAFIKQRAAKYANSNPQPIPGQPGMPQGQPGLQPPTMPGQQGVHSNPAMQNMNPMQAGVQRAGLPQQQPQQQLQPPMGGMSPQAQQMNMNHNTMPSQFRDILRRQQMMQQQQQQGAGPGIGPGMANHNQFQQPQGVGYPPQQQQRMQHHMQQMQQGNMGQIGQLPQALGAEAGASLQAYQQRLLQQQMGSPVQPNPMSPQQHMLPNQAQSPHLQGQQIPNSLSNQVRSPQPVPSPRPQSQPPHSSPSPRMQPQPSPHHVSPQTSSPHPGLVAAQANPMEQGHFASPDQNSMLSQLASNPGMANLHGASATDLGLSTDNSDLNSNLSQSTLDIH

[10] = biological target: GCN5 (Homo sapiens, UniProt Q92830); test: histone acetyltransferase; type: biochemical
[11] = biological target: CBP (Homo sapiens, UniProt Q92793); test: histone acetyltransferase; type: biochemical
Sequence of CBP (Q92793 whole entry): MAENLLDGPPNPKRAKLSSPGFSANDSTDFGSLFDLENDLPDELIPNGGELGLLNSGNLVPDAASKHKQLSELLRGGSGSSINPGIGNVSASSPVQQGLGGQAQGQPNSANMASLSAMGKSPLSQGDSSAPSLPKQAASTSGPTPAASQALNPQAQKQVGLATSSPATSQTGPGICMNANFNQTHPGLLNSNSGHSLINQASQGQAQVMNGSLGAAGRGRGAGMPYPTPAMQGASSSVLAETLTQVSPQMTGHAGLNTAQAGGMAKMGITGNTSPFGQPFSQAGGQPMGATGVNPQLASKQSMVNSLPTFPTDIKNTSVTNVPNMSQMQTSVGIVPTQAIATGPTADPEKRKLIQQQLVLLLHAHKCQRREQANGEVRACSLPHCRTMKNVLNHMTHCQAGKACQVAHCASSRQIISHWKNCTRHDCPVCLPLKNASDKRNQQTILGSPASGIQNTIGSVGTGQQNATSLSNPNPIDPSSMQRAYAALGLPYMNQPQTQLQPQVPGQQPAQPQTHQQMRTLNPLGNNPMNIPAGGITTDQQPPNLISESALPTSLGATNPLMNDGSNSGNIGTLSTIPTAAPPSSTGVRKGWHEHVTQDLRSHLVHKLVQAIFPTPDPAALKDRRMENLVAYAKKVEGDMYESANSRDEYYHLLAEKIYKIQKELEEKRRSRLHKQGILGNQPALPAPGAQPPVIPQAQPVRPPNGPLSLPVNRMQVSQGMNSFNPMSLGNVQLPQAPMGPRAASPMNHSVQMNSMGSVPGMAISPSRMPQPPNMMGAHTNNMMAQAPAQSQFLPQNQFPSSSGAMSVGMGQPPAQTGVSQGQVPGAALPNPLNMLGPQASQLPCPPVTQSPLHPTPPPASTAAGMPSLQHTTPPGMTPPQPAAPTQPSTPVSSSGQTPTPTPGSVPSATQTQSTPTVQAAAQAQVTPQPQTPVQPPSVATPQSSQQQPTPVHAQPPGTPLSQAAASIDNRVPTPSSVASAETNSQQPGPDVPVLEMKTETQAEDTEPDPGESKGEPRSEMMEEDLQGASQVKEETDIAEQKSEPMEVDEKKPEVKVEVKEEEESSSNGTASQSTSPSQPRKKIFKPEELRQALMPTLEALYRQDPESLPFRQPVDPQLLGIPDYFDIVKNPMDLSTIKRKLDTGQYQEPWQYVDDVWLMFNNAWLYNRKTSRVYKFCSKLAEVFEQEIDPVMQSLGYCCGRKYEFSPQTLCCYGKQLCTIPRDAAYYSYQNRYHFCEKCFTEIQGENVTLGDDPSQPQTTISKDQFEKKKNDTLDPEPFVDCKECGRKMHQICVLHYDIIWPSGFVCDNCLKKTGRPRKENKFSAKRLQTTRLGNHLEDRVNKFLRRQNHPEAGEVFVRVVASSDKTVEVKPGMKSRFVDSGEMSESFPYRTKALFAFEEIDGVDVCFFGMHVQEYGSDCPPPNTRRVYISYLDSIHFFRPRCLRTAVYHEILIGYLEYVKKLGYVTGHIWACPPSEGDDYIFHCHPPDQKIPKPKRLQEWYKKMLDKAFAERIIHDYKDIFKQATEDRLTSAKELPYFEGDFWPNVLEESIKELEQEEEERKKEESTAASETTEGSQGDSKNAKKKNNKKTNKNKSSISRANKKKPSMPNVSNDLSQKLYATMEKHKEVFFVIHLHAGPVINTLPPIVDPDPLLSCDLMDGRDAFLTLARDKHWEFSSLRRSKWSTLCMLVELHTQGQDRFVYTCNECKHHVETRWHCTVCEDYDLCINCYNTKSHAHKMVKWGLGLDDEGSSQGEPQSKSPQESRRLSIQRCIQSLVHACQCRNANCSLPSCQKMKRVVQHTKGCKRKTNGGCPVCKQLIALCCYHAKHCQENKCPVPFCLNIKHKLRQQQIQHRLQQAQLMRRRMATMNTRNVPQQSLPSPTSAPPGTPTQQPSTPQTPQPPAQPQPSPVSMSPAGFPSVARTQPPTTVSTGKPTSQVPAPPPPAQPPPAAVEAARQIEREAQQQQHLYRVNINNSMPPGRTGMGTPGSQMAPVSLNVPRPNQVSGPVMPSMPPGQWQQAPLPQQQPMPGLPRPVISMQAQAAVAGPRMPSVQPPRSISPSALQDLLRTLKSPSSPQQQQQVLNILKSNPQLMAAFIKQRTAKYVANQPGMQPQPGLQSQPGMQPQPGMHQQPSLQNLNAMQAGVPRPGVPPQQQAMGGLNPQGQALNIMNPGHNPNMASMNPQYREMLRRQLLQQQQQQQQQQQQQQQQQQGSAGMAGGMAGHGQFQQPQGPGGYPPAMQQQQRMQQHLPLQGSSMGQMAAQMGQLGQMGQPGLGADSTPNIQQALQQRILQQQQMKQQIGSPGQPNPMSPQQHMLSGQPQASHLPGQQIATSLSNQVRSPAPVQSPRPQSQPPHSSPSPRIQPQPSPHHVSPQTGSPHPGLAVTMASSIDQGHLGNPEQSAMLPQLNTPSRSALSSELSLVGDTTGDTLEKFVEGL

[12] = system: il6 promoter in bone marrow-derived macrophages; test: ChIP of epigenetic marks at gene promoters in LPS-stimulated macrophages; type: cell-based, C57BL/6 mice; details: I-BET 5 μM

Compound	conversion of sI-BET genes into naI-BET genes [1]	interaction with other bromodomain-containing proteins [2]	activity towards a panel of 38 unrelated proteins [3]	number of LPS-inducible genes down-regulated ([4]; 1 hour after LPS)	number of LPS-inducible genes down-regulated ([4]; 4 hours after LPS)	expression of tnf, ccl2-5, cxcl1/2 ([4]; LPS-stimulated BMDMs)	effect on gene transcription [5]	LPS-induced ERK phosphorylation and IκBα degradation [6]	effect on viability of BMDMs [7]	suppression of HAT activity [8]	suppression of HAT activity [9]	suppression of HAT activity [10]	suppression of HAT activity [11]	BET recruitment at il6 promoter [12]
CC(/C=C/C(=O)NO)=C\[C@@H](C)C(=O)c1ccc(N(C)C)cc1 [trichostatin A]	able to “convert” sI-BET into naI-BET genes	–	–	–	–	–	–	–	–	–	–	–	–	–
CCNC(=O)C[C@@H]1N=C(c2ccc(Cl)cc2)c2cc(OC)ccc2-n2c(C)nnc21 [I-BET]	–	did not interact	no activity	38	151	not affected	marginal effect	unaltered pattern	no effect	inability of I-BET to suppress the activity	inability of I-BET to suppress the activity	inability of I-BET to suppress the activity	inability of I-BET to suppress the activity	marked reduction
